pIC50: −log10 of the molar value.
Key:
D816V Kit = target: T1, D816V Kit (Homo sapiens, UniProt P10721, D816V); assay: Kit D816V assay at Km (Caliper electrophoretic mobility shift); conditions: D816V Kit 0.5 nM, 15 uM ATP (Km), 1 uM Srctide, 25 C, 90 minutes; read-out: Biochemical Activity D816V IC50
T1 construct: purchased Carna Bioscience 08-156
Method: In order to assess the activity of chemical compounds against the relevant kinase of interest, the Caliper LifeSciences electrophoretic mobility shift technology platform is used. Fluorescently labeled substrate peptide is incubated in the presence of kinase and ATP so that a […] proportion of the peptide is phosphorylated. At the end of the reaction, the mix of phosphorylated (product) and non-phosphorylated (substrate) peptides are passed through the microfluidic system of the Caliper EZ Reader 2, under an applied potential difference. The presence of the phosphate group on the product peptide provides a difference in mass and charge between those of the substrate peptide, resulting in a separation of the substrate and product pools in the sample. As the pools pass a LEDS within the instrument, these pools are detected and resolved as separate peaks. The ratio between these peaks therefore reflects the activity of the chemical matter at that concentration in that well, under those conditions.
Kit D816V assay at Km: In each well of a 384-well plate, 0.04 ng/ul (0.5 nM) of D816V Kit (Carna Bioscience 08-156) was incubated in a total of 12.5 ul of buffer (100 mM HEPES pH 7.5, 0.015% Brij 35, 10 mM MgCl2, 1 mM DTT) with 1 uM Srctide (5-FAM-GEEPLYWSFPAKKK-NH2) and 15 uM ATP at 25 C for 90 minutes in the presence or absence of a dosed concentration series of compound (1% DMSO final concentration). The reaction was stopped by the addition of 70 ul of Stop buffer (100 mM HEPES pH 7.5, 0.015% Brij 35, 35 mM EDTA and 0.2% of Coating Reagent 3 (Caliper Lifesciences)). The plate was then read on a Caliper EZReader 2 (protocol settings:—1.9 psi, upstream voltage—700, downstream voltage—3000, post sample sip 35s). Data was normalized to 0% and 100% inhibition controls and the IC50 or EC50 calculated using a 4-parameter fit using GraphPad Prism.

[1] = target: T2, Kit D816V in HMC1.2 cells (Homo sapiens, UniProt P10721, D816V/V560G); assay: HMC1.2 autophosphorylation assay (Kit autophosphorylation at tyrosine 719, AlphaLISA); format: cell-based; conditions: HMC1.2 mast cell leukemia cells (Kit V560G and D816V), phospho-Y719 c-Kit, 90 minutes; read-out: Cellular Activity IC50
T2 construct: endogenous in cells; host or cells: HMC1.2
Method: 10,000 HMC1.2 cells were incubated in 22 ul culture media (phenol-red free IMDM, no serum) in each well of a 384-well plate and serum starved overnight in a tissue culture incubator (5% CO2, 37° C.). A 10-point dose concentration series of compound (25 uM-95.4 pM) were then added to the cells in a volume of 3.1 ul to each well (0.25% DMSO final concentration). After 90 minutes, 6 ul of 5× AlphaLISA Lysis Buffer (Perkin Elmer) supplemented with a protease and phosphatase inhibitor cocktail (Cell Signaling Technologies) was added to each well and shaken at 450 rpm for 15 minutes at 4° C. 10 ul of phospho-Y719 c-Kit and total c-Kit antibodies (15 nM final concentration, Cell Signaling Technologies) and 50 ug/ml AlphaLISA rabbit acceptor beads (Perkin Elmer) were added to each well and shaken at 300 rpm at room temperature for 2 hours. 10 ul of 100 ug/ml streptavidin donor beads (Perkin Elmer) were added to each well, blocked from light with aluminum adhesive and shaken at 300 rpm at room temperature for 2 hours. Fluorescence signal was obtained on Envision (Perkin Elmer) by AlphaScreen 384 well HTS protocol. Data was normalized to 0% and 100% inhibition controls and the IC50 was calculated using Four Parameter Logistic IC50 curve fitting.
This cell line contains Kit mutated at positions V560G and D816V resulting in constitutive activation of the kinase. The following compounds were tested in an assay to measure direct inhibition of Kit D816V kinase activity by assaying Kit autophosphorylation at tyrosine 719 on the Kit protein.

T2 sequence (P10721 26-976 V560G/D816V): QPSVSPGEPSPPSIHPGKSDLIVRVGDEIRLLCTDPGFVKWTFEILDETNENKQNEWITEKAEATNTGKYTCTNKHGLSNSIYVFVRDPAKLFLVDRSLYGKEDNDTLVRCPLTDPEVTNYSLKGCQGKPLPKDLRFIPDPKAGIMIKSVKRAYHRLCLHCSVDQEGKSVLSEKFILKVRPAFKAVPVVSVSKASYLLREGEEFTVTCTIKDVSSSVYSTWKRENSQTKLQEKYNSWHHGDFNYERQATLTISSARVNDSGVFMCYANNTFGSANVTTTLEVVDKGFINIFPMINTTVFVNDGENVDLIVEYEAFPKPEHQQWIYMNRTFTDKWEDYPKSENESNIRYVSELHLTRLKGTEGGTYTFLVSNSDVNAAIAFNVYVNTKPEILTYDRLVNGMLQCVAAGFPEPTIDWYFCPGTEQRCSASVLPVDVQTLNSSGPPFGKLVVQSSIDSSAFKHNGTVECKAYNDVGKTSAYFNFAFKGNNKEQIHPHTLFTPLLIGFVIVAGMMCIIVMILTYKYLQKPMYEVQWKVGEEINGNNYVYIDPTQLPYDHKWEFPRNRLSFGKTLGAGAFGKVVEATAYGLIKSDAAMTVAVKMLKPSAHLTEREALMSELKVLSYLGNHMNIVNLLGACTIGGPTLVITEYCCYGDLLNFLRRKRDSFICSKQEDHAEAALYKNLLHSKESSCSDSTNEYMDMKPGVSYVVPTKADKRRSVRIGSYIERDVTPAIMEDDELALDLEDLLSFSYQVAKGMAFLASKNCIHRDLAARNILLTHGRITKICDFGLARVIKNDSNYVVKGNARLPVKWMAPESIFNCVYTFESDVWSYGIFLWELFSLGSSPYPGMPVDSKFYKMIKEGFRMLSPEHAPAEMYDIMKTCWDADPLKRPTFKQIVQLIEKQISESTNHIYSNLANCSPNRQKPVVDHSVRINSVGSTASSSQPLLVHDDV
T1 sequence (P10721 26-976 D816V): as the sequence (P10721 26-976 V560G/D816V) above, with G535V counted along it

| Structure (SMILES) | pIC50 (D816V Kit) | pIC50 [1] |
| --- | --- | --- |
| CCC(C(=O)Nc1ccc(-c2ncnn3cc(-c4cnn(C)c4)cc23)cc1)c1ccc(Cl)cc1 (centres unmarked) [Compound 43] | 8.00 to 9.00 | 7.00 to 8.00 |
| CC[C@H](C(=O)Nc1ccc(-c2ncnn3cc(-c4cnn(C)c4)cc23)cc1)c1ccc(Cl)cc1 [Compound 44] | 7.00 to 8.00 | 6.00 to 7.00 |
| Cn1cc(-c2cc3c(-c4ccc(NC(=O)C(C)(N)c5ccc(Cl)cc5)cc4)ncnn3c2)cn1 (centres unmarked) [Compound 47, 2-amino-2-(4-chlorophenyl)-N-(4-(6-(1-methyl-1H-pyrazol-4-yl)pyrrolo[1,2-f][1,2,4]triazin-4-yl)phenyl)propanamide] | 8.00 to 9.00 | > 8.00 |
| CO[C@@H](C(=O)Nc1ccc(-c2ncnn3cc(-c4cnn(C)c4)cc23)cc1)c1ccc(Cl)cc1 [Compound 48] | > 9.00 | > 8.00 |
| Cn1cc(-c2cc3c(-c4ccc(NC(=O)[C@](C)(O)c5ccc(Cl)cc5)cc4)ncnn3c2)cn1 [Compound 50, 2-(4-chlorophenyl)-2-hydroxy-N-(4-(6-(1-methyl-1H-pyrazol-4-yl)pyrrolo[1,2-f][1,2,4]triazin-4-yl)phenyl)propanamide] | 7.00 to 8.00 | 6.00 to 7.00 |
| CO[C@H](C(=O)Nc1ccc(-c2ncnn3cc(-c4cnn(C)c4)cc23)cc1)c1ccc(Cl)cc1 [Compound 53] | 7.00 to 8.00 | 6.00 to 7.00 |
| Cn1cc(-c2cc3c(-c4ccc(NC(=O)Cc5ccc(Cl)cc5Cl)cc4)ncnn3c2)cn1 [Compound 54] | 8.00 to 9.00 | > 8.00 |
| CC(C)C(C(=O)Nc1ccc(-c2ncnn3cc(-c4cnn(C)c4)cc23)cc1)c1ccc(Cl)cc1 (centres unmarked) [Compound 58] | 7.00 to 8.00 | 7.00 to 8.00 |
| CN(C)C(C(=O)Nc1ccc(-c2ncnn3cc(-c4cnn(C)c4)cc23)cc1)c1ccc(Cl)cc1 (centres unmarked) [Compound 59, 2-(4-chlorophenyl)-2-(dimethylamino)-N-(4-(6-(1-methyl-1H-pyrazol-4-yl)pyrrolo[1,2-f][1,2,4]triazin-4-yl)phenyl)acetamide] | 8.00 to 9.00 | 7.00 to 8.00 |
| CC(C)Oc1ccc(-c2cc3c(-c4ccc(NS(=O)(=O)c5ccc(Cl)cc5)cc4)ncnn3c2)cc1 [Compound 62, 4-chloro-N-(4-(6-(4-isopropoxyphenyl)pyrrolo[2,1-f][1,2,4]triazin-4-yl)phenyl)benzenesulfonamide] | 7.00 to 8.00 | 5.00 to 6.00 |
| CCC(=O)N1CC=C(c2cc3c(-c4ccc(NS(=O)(=O)c5ccc(Cl)cc5)cc4)ncnn3c2)CC1 [Compound 63] | > 9.00 | 7.00 to 8.00 |
| CCOC(=O)N1CC=C(c2cc3c(-c4ccc(NS(=O)(=O)c5ccc(Cl)cc5)cc4)ncnn3c2)CC1 [Compound 64, ethyl 4-(4-(4-((4-chlorophenyl)sulfonamido)phenyl)pyrrolo[2,1-f][1,2,4]triazin-6-yl)-3,6-dihydropyridine-1(2H)-carboxylate] | 8.00 to 9.00 | 7.00 to 8.00 |

Further lines, results first:

| pIC50 (D816V Kit) | pIC50 [1] | Structure (SMILES) |
| --- | --- | --- |
| 8.00 to 9.00 | > 8.00 | CC[C@@H](C(=O)Nc1ccc(-c2ncnn3cc(-c4cnn(C)c4)cc23)cc1)c1ccc(Cl)cc1 [Compound 42] |
| 8.00 to 9.00 | > 8.00 | Cn1cc(-c2cc3c(-c4ccc(NC(=O)[C@@](C)(N)c5ccc(Cl)cc5)cc4)ncnn3c2)cn1 [Compound 45, 2-amino-2-(4-chlorophenyl)-N-(4-(6-(1-methyl-1H-pyrazol-4-yl)pyrrolo[1,2-f][1,2,4]triazin-4-yl)phenyl)propanamide] |
| 8.00 to 9.00 | > 8.00 | Cn1cc(-c2cc3c(-c4ccc(NC(=O)[C@](C)(N)c5ccc(Cl)cc5)cc4)ncnn3c2)cn1 [Compound 46, 2-amino-2-(4-chlorophenyl)-N-(4-(6-(1-methyl-1H-pyrazol-4-yl)pyrrolo[1,2-f][1,2,4]triazin-4-yl)phenyl)propanamide] |
| 8.00 to 9.00 | > 8.00 | Cn1cc(-c2cc3c(-c4ccc(NC(=O)[C@@](C)(O)c5ccc(Cl)cc5)cc4)ncnn3c2)cn1 [Compound 49, 2-(4-chlorophenyl)-2-hydroxy-N-(4-(6-(1-methyl-1H-pyrazol-4-yl)pyrrolo[1,2-f][1,2,4]triazin-4-yl)phenyl)propanamide] |
| 8.00 to 9.00 | 7.00 to 8.00 | Cn1cc(-c2cc3c(-c4ccc(NC(=O)C(C)(O)c5ccc(Cl)cc5)cc4)ncnn3c2)cn1 (centres unmarked) [Compound 51] |
| 8.00 to 9.00 | 7.00 to 8.00 | COC(C(=O)Nc1ccc(-c2ncnn3cc(-c4cnn(C)c4)cc23)cc1)c1ccc(Cl)cc1 (centres unmarked) [Compound 52] |
| < 7.00 | 5.00 to 6.00 | O=S(=O)(Nc1ccc(-c2ncnn3cc(-c4ccc(F)cc4)cc23)cc1)c1ccc(Cl)cc1 [Compound 55] |
| 8.00 to 9.00 | 6.00 to 7.00 | Cn1cc(-c2cc3c(-c4ccc(NS(=O)(=O)c5ccc(Cl)cc5)cc4F)ncnn3c2)cn1 [Compound 56] |
| 7.00 to 8.00 | 5.00 to 6.00 | Cn1cc(-c2cc3c(-c4ccc(NS(=O)(=O)c5ccc(Cl)cc5)c(F)c4)ncnn3c2)cn1 [Compound 57] |
| 8.00 to 9.00 | 7.00 to 8.00 | CC(C)(O)Cn1cc(-c2cc3c(-c4ccc(NC(=O)Cc5ccc(Cl)cc5)cc4)ncnn3c2)cn1 [Compound 60] |
| 7.00 to 8.00 | 5.00 to 6.00 | CC(C)(C)Oc1ccc(-c2cc3c(-c4ccc(NC(=O)Cc5ccc(Cl)cc5)cc4)ncnn3c2)cc1 [Compound 61] |
| 7.00 to 8.00 | 6.00 to 7.00 | CS(=O)(=O)c1ccc(-c2cc3c(-c4ccc(NS(=O)(=O)c5ccc(Cl)cc5)cc4)ncnn3c2)cc1 [Compound 65] |
| < 7.00 | 5.00 to 6.00 | O=C(c1ccc(-c2cc3c(-c4ccc(NS(=O)(=O)c5ccc(Cl)cc5)cc4)ncnn3c2)cc1)N1CCC1 [Compound 66] |
